Tested on: human skin
Details: for CYP7B1 gene expression (fold change): in vivo; for BIRC3 gene expression (fold change) / C1orf162 gene expression (fold change) / CCR2 gene expression (fold change) / CD1B gene expression (fold change) / CD2 gene expression (fold change) / CD53 gene expression (fold change) / CD86 gene expression (fold change) / CD226 gene expression (fold change) / CHRM4 gene expression (fold change) / CLEC7A gene expression (fold change) / COL3A1 gene expression (fold change) / COL5A2 gene expression (fold change) / COL6A6 gene expression (fold change) / COL14A1 gene expression (fold change) / CTSS gene expression (fold change) / CYBB gene expression (fold change) / CYTIP gene expression (fold change) / DIO2 gene expression (fold change) / EVI2B gene expression (fold change) / FAP gene expression (fold change) / FCGR2A gene expression (fold change) / FPR3 gene expression (fold change) / FYB gene expression (fold change) / GDPD2 gene expression (fold change) / GLIPR1 gene expression (fold change) / GMFG gene expression (fold change) / GPR174 gene expression (fold change) / GZMK gene expression (fold change) / HIST1H3A gene expression (fold change) / HLA-DPA1 gene expression (fold change) / HLA-DQA1 gene expression (fold change) / HLA-DRA gene expression (fold change) / IFI44L gene expression (fold change) / IFI44 gene expression (fold change) / IL33 gene expression (fold change) / IRF8 gene expression (fold change) / KIAA0226L gene expression (fold change) / KLRB1 gene expression (fold change) / LYZ gene expression (fold change) / MIRLET7C gene expression (fold change) / MNDA gene expression (fold change) / OCA2 gene expression (fold change) / PARP14 gene expression (fold change) / PCSK2 gene expression (fold change) / PLAC8 gene expression (fold change) / PLEK gene expression (fold change) / PTPRC gene expression (fold change) / RGS1 gene expression (fold change) / RNASE6 gene expression (fold change) / SAMD9 gene expression (fold change) / SELL gene expression (fold change) / SPP1 gene expression (fold change) / SRGN gene expression (fold change) / ST8SIA4 gene expression (fold change) / TPPP gene expression (fold change) / TRPM1 gene expression (fold change) / UGT2A1 gene expression (fold change) / VCAM1 gene expression (fold change): photodamaged forearm skin, 0.02% partially occlusive patch 30 days, 30-day biopsy relative to baseline, negative = downregulated

CC1=C(/C=C/C(C)=C/C=C/C(C)=C/C(=O)O)C(C)(C)CCC1 [RA, retinoic acid]
CYP7B1 gene expression (fold change): 1.320 fold change | BIRC3 gene expression (fold change): 1.555 fold change | C1orf162 gene expression (fold change): 1.356 fold change | CCR2 gene expression (fold change): 1.658 fold change | CD1B gene expression (fold change): 1.510 fold change | CD2 gene expression (fold change): 1.339 fold change | CD53 gene expression (fold change): 1.586 fold change | CD86 gene expression (fold change): 1.468 fold change | CD226 gene expression (fold change): 1.423 fold change | CHRM4 gene expression (fold change): −1.326 fold change | CLEC7A gene expression (fold change): 1.964 fold change | COL3A1 gene expression (fold change): 1.443 fold change | COL5A2 gene expression (fold change): 1.369 fold change | COL6A6 gene expression (fold change): 2.091 fold change | COL14A1 gene expression (fold change): 1.311 fold change | CTSS gene expression (fold change): 1.302 fold change | CYBB gene expression (fold change): 1.637 fold change | CYTIP gene expression (fold change): 1.336 fold change | DIO2 gene expression (fold change): −1.548 fold change | EVI2B gene expression (fold change): 1.405 fold change | FAP gene expression (fold change): 1.370 fold change | FCGR2A gene expression (fold change): 1.366 fold change | FPR3 gene expression (fold change): 1.439 fold change | FYB gene expression (fold change): 1.483 fold change | GDPD2 gene expression (fold change): −2.585 fold change | GLIPR1 gene expression (fold change): 1.422 fold change | GMFG gene expression (fold change): 1.358 fold change | GPR174 gene expression (fold change): 1.411 fold change | GZMK gene expression (fold change): 1.571 fold change | HIST1H3A gene expression (fold change): 1.375 fold change | HLA-DPA1 gene expression (fold change): 1.466 fold change | HLA-DQA1 gene expression (fold change): 1.594 fold change | HLA-DRA gene expression (fold change): 1.403 fold change | IFI44L gene expression (fold change): 1.472 fold change | IFI44 gene expression (fold change): 1.337 fold change | IL33 gene expression (fold change): 1.587 fold change | IRF8 gene expression (fold change): 1.725 fold change | KIAA0226L gene expression (fold change): 1.307 fold change | KLRB1 gene expression (fold change): 1.363 fold change | LYZ gene expression (fold change): 2.271 fold change | MIRLET7C gene expression (fold change): −1.319 fold change | MNDA gene expression (fold change): 1.406 fold change | OCA2 gene expression (fold change): −1.432 fold change | PARP14 gene expression (fold change): 1.364 fold change | PCSK2 gene expression (fold change): −1.825 fold change | PLAC8 gene expression (fold change): 1.844 fold change | PLEK gene expression (fold change): 1.667 fold change | PTPRC gene expression (fold change): 1.606 fold change | RGS1 gene expression (fold change): 1.503 fold change | RNASE6 gene expression (fold change): 1.540 fold change | SAMD9 gene expression (fold change): 5.339 fold change | SELL gene expression (fold change): 1.691 fold change | SPP1 gene expression (fold change): 1.416 fold change | SRGN gene expression (fold change): 1.569 fold change | ST8SIA4 gene expression (fold change): 1.389 fold change | TPPP gene expression (fold change): −1.402 fold change | TRPM1 gene expression (fold change): −1.306 fold change | UGT2A1 gene expression (fold change): −1.369 fold change | VCAM1 gene expression (fold change): 1.730 fold change

CC1=C(/C=C/C(C)=C/C=C/C(C)=C/CO)C(C)(C)CCC1 [Retinol, retinol]
CYP7B1 gene expression (fold change): 1.309 fold change | BIRC3 gene expression (fold change): 1.815 fold change | C1orf162 gene expression (fold change): 1.301 fold change | CCR2 gene expression (fold change): 1.416 fold change | CD1B gene expression (fold change): 1.844 fold change | CD2 gene expression (fold change): 1.311 fold change | CD53 gene expression (fold change): 1.483 fold change | CD86 gene expression (fold change): 1.348 fold change | CD226 gene expression (fold change): 1.396 fold change | CHRM4 gene expression (fold change): −1.401 fold change | CLEC7A gene expression (fold change): 1.502 fold change | COL3A1 gene expression (fold change): 1.455 fold change | COL5A2 gene expression (fold change): 1.380 fold change | COL6A6 gene expression (fold change): 2.245 fold change | COL14A1 gene expression (fold change): 1.408 fold change | CTSS gene expression (fold change): 1.514 fold change | CYBB gene expression (fold change): 1.413 fold change | CYTIP gene expression (fold change): 1.481 fold change | DIO2 gene expression (fold change): −1.384 fold change | EVI2B gene expression (fold change): 1.323 fold change | FAP gene expression (fold change): 1.518 fold change | FCGR2A gene expression (fold change): 1.346 fold change | FPR3 gene expression (fold change): 1.321 fold change | FYB gene expression (fold change): 1.404 fold change | GDPD2 gene expression (fold change): −1.363 fold change | GLIPR1 gene expression (fold change): 1.450 fold change | GMFG gene expression (fold change): 1.300 fold change | GPR174 gene expression (fold change): 1.339 fold change | GZMK gene expression (fold change): 1.402 fold change | HIST1H3A gene expression (fold change): −1.363 fold change | HLA-DPA1 gene expression (fold change): 1.364 fold change | HLA-DQA1 gene expression (fold change): 1.378 fold change | HLA-DRA gene expression (fold change): 1.439 fold change | IFI44L gene expression (fold change): 1.320 fold change | IFI44 gene expression (fold change): 1.429 fold change | IL33 gene expression (fold change): 1.360 fold change | IRF8 gene expression (fold change): 1.392 fold change | KIAA0226L gene expression (fold change): 1.371 fold change | KLRB1 gene expression (fold change): 1.377 fold change | LYZ gene expression (fold change): 1.603 fold change | MIRLET7C gene expression (fold change): 1.366 fold change | MNDA gene expression (fold change): 1.805 fold change | OCA2 gene expression (fold change): −1.334 fold change | PARP14 gene expression (fold change): 1.356 fold change | PCSK2 gene expression (fold change): −1.566 fold change | PLAC8 gene expression (fold change): 1.434 fold change | PLEK gene expression (fold change): 1.449 fold change | PTPRC gene expression (fold change): 1.446 fold change | RGS1 gene expression (fold change): 1.379 fold change | RNASE6 gene expression (fold change): 1.452 fold change | SAMD9 gene expression (fold change): 1.382 fold change | SELL gene expression (fold change): 1.304 fold change | SPP1 gene expression (fold change): 1.604 fold change | SRGN gene expression (fold change): 1.353 fold change | ST8SIA4 gene expression (fold change): 1.366 fold change | TPPP gene expression (fold change): −1.328 fold change | TRPM1 gene expression (fold change): −1.431 fold change | UGT2A1 gene expression (fold change): −1.696 fold change | VCAM1 gene expression (fold change): 1.357 fold change
